Source: patent US9689021B2, “Method for measuring beta-lactam antibiotics” (priority 2011, dated 2017)
Where two headings read alike, the source gives them in different places.

Experiments:
[1] = system: Oxa-29 class D beta-lactamase; experiment: BLAC2 method, nitrocefin (CPR) rate with Oxa-29; type: biochemical
Protocol: (§1) The dilution buffer for the enzymes, CPR, standards and samples was 50 mM PBS buffer, pH 7.0.
(§2) The stock solution of CPR was 200 μM. Standards solution of ampicillin and cefuroxime were prepared at 100, 75, 50, 30, 15, 5, 1 and 0 mg/L.
In the method 2 (BLAC2), 99 μl of sample, 99 μl of CPR and 22 μl of enzyme Oxa-29 were mixed. The reaction kinetics was determined by measuring the absorbance at 482 nm as a function of time. Enzyme activity v0 max was adjusted at +/−0.2 ΔAbs482/min.

[2] = target: P99 class C beta-lactamase (Enterobacter cloacae, UniProt P05364); experiment: BLAC1 method, nitrocefin (CPR) rate with P99 (Example 7); type: biochemical
Protocol: as §1, §2
In the method 1 (BLAC1), 10 μl of 50-fold diluted sample, 100 μl of CPR and 100 μl of enzyme P99 were mixed. The reaction kinetics was determined by measuring the absorbance at 482 nm as a function of time. Enzyme activity v0 max was adjusted at +/−0.33 ΔAbs482/min.

P99A266C [3] = target: T1, P99A266C (Enterobacter cloacae, UniProt P05364, A266C); experiment: Reaction of immobilized enzyme on ATR element with chromogenic substrate CENTA; type: biochemical, Enterobacter cloacae P99
T1 construct: made in house; host or cells: E. coli BL21(DE3), pET28 vector
Protocol: On the N-maleimide functionalized ATR element, the class C beta-lactamase P99A266C prepared as in example 2 was bound.
P99A266C binding onto the functionalized crystal was obtained by depositing 10 μL of a solution (phosphate buffer 50 mM, pH 7) of P99A266C enzyme (30 μg/ml) during 1 h, then rinsing with buffer during 15 min at a rate of 35 μL/min.
The immobilized enzyme was able to react rapidly with its chromogenic substrate CENTA: this was controlled by the appearance of the […] coloration.

P99A266C [4] = target: T1, P99A266C; experiment: FTIR-ATR biosensor binding; set-up: species or system Enterobacter cloacae P99; details: 50-100 μg/mL, 10-20 min, 35 μl/min
Protocol: A solution of the beta-lactam antibiotic cefuroxim; obtained from Sigma-Aldrich in milliQ water at a concentration of 50-100 μg/mL was passed over the biosensor constructed in Example 3. The solution was passed over the crystal during 10-20 min at a rate of 35 μl/min.
FTIR-ATR spectra were recorded and cefuroxim binding was monitored by following the appearance of its characteristic signal. By subtracting the spectrum of the P99A266C, the spectrum of the acyl-enzyme complex appeared clearly. The intensity of the peak at 1730 cm^−1 allowed the quantitative measurement of cefuroxim binding. […] The structure of the acyl-enzyme complex is represented below.

[5] = target: class C beta-lactamase of Enterobacter cloacae P99 (Enterobacter cloacae, UniProt P05364); details: cited from earlier work; for Km: read-out: Km
[6] = system: class C beta-lactamase of Enterobacter cloacae 908R; details: cited from earlier work
[7] = target: class C beta-lactamase of Citrobacter freundii (Citrobacter freundii, UniProt P05193); details: cited from earlier work
[8] = target: class C beta-lactamase of Escherichia coli K12 (Escherichia coli, UniProt P00811); details: cited from earlier work
[9] = target: class C beta-lactamase of Serratia marcescens (Serratia marcescens, UniProt P18539); details: cited from earlier work
[10] = target: class C beta-lactamase of Pseudomonas aeruginosa (Pseudomonas aeruginosa, UniProt P24735); details: cited from earlier work
P99 beta-lactamase = P99 beta-lactamase (Enterobacter cloacae, UniProt P05364); type: biochemical
Sequence of P99 beta-lactamase (P05364 21-381): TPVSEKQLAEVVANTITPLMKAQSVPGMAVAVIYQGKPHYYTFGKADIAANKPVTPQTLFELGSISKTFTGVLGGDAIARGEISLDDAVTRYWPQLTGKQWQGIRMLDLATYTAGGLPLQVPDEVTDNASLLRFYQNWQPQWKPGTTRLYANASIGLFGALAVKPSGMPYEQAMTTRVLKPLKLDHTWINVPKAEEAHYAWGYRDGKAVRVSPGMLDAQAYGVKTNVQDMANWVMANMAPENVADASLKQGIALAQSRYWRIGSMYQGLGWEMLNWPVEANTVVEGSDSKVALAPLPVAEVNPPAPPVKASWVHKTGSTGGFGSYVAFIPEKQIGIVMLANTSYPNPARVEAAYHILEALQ

Sequence of class C beta-lactamase of Citrobacter freundii (P05193 21-381): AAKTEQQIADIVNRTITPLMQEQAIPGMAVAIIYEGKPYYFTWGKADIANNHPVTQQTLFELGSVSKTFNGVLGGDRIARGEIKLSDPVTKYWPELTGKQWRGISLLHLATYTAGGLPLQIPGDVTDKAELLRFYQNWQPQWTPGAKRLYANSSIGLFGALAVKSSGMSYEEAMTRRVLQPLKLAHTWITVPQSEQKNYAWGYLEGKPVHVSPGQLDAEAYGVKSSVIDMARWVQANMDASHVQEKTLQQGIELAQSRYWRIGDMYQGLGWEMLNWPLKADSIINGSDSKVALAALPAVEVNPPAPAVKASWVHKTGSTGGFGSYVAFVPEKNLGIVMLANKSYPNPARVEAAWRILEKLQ
Sequence of class C beta-lactamase of Serratia marcescens (P18539 22-376): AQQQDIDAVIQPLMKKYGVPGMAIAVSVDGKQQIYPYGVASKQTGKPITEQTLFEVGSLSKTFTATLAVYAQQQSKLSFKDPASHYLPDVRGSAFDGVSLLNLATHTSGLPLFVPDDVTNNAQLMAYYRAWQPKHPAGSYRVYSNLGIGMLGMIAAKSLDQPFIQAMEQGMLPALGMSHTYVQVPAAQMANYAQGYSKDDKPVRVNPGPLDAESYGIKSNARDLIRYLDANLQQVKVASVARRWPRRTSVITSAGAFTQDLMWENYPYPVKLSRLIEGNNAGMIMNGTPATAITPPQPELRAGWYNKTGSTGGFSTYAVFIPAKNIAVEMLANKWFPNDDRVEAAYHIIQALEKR
Sequence of class C beta-lactamase of Pseudomonas aeruginosa (P24735 27-397): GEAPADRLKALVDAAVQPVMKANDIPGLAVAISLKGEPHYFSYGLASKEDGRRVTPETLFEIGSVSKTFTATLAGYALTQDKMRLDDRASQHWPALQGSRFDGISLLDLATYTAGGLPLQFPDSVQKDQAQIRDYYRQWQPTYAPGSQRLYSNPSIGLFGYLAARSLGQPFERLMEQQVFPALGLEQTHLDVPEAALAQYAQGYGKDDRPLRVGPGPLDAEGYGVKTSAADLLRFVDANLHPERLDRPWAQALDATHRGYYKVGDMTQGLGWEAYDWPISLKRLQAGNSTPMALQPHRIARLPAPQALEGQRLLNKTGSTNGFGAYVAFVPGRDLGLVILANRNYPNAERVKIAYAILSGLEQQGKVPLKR
Sequence of class C beta-lactamase of Enterobacter cloacae P99 (P05364 21-381): as the sequence (P05364 21-381) above
Sequence of P99 class C beta-lactamase (P05364 21-381): as above
Sequence of class C beta-lactamase of Escherichia coli K12 (P00811 20-377): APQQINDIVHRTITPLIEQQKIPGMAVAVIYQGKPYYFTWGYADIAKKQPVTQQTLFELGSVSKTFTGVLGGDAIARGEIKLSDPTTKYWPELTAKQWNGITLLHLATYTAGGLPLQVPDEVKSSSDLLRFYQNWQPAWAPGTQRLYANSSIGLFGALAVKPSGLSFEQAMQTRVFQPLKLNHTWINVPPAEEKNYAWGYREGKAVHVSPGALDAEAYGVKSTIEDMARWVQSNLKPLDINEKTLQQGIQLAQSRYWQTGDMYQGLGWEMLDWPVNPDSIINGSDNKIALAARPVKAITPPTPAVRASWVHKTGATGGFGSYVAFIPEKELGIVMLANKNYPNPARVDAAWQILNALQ
T1 sequence (P05364 other isoform, or with tags, fused parts or gaps A266C): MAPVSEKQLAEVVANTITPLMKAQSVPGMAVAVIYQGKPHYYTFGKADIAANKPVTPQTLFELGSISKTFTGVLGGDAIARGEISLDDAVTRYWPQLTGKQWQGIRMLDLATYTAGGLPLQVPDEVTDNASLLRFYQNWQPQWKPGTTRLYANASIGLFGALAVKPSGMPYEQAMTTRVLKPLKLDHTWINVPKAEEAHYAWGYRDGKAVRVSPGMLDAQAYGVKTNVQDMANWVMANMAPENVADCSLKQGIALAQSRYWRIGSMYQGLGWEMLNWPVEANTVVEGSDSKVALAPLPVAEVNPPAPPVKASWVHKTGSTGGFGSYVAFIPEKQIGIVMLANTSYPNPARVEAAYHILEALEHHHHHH

Molecule: CO/N=C(\C(=O)N[C@@H]1C(=O)N2C(C(=O)O)=C(COC(N)=O)CS[C@H]12)c1ccco1 [Cefuroxime]
- rate of Oxa-29 Class D beta-lactamase ([1]; BLAC2, 1 mg/L): 0.2079 ΔAbs482/min
- residual rate minus 1, (vomax/v0)−1, Oxa-29 ([1]; BLAC2, 1 mg/L): 0.072
- rate of Oxa-29 Class D beta-lactamase ([1]; BLAC2, 5 mg/L): 0.2025 ΔAbs482/min
- residual rate minus 1, (vomax/v0)−1, Oxa-29 ([1]; BLAC2, 5 mg/L): 0.100
- rate of Oxa-29 Class D beta-lactamase ([1]; BLAC2, 15 mg/L): 0.2011 ΔAbs482/min
- residual rate minus 1, (vomax/v0)−1, Oxa-29 ([1]; BLAC2, 15 mg/L): 0.108
- rate of Oxa-29 Class D beta-lactamase ([1]; BLAC2, 30 mg/L): 0.1992 ΔAbs482/min
- residual rate minus 1, (vomax/v0)−1, Oxa-29 ([1]; BLAC2, 30 mg/L): 0.118
- rate of Oxa-29 Class D beta-lactamase ([1]; BLAC2, 50 mg/L): 0.1897 ΔAbs482/min
- residual rate minus 1, (vomax/v0)−1, Oxa-29 ([1]; BLAC2, 50 mg/L): 0.174
- rate of Oxa-29 Class D beta-lactamase ([1]; BLAC2, 75 mg/L): 0.1796 ΔAbs482/min
- residual rate minus 1, (vomax/v0)−1, Oxa-29 ([1]; BLAC2, 75 mg/L): 0.241
- rate of Oxa-29 Class D beta-lactamase ([1]; BLAC2, 100 mg/L): 0.1749 ΔAbs482/min
- residual rate minus 1, (vomax/v0)−1, Oxa-29 ([1]; BLAC2, 100 mg/L): 0.274
- linear regression coefficient a (Y=aX+b), Oxa-29 ([1]; BLAC2, X in mg/L): 0.0023
- linear regression coefficient b (Y=aX+b), Oxa-29 ([1]; BLAC2, X in mg/L): 0.0003
- rate of P99 class C beta-lactamase ([2]; BLAC1, 1 mg/L): 0.3247 ΔAbs482/min
- residual rate minus 1, (vomax/v0)−1, P99 ([2]; BLAC1, 1 mg/L): 0.048
- rate of P99 class C beta-lactamase ([2]; BLAC1, 5 mg/L): 0.2763 ΔAbs482/min
- residual rate minus 1, (vomax/v0)−1, P99 ([2]; BLAC1, 5 mg/L): 0.232
- rate of P99 class C beta-lactamase ([2]; BLAC1, 15 mg/L): 0.1938 ΔAbs482/min
- residual rate minus 1, (vomax/v0)−1, P99 ([2]; BLAC1, 15 mg/L): 0.756
- rate of P99 class C beta-lactamase ([2]; BLAC1, 30 mg/L): 0.1417 ΔAbs482/min
- residual rate minus 1, (vomax/v0)−1, P99 ([2]; BLAC1, 30 mg/L): 1.402
- rate of P99 class C beta-lactamase ([2]; BLAC1, 50 mg/L): 0.0957 ΔAbs482/min
- residual rate minus 1, (vomax/v0)−1, P99 ([2]; BLAC1, 50 mg/L): 2.556
- rate of P99 class C beta-lactamase ([2]; BLAC1, 75 mg/L): 0.0736 ΔAbs482/min
- residual rate minus 1, (vomax/v0)−1, P99 ([2]; BLAC1, 75 mg/L): 3.624
- rate of P99 class C beta-lactamase ([2]; BLAC1, 100 mg/L): 0.0539 ΔAbs482/min
- residual rate minus 1, (vomax/v0)−1, P99 ([2]; BLAC1, 100 mg/L): 5.314
- linear regression coefficient a (Y=aX+b), P99 ([2]; BLAC1, X in mg/L): 0.0518
- linear regression coefficient b (Y=aX+b), P99 ([2]; BLAC1, X in mg/L): 0.0013
- reaction of immobilized enzyme with chromogenic substrate when antibiotic fixed (P99A266C [3]): did not occur
- binding to P99A266C biosensor (FTIR-ATR) (P99A266C [4]): fixed to P99A266C (acyl-enzyme complex)
- kcat [5]: 0.05 s⁻¹
- Km [5]: 0.016 µM
- kcat [6]: 0.05 s⁻¹
- kcat [7]: 0.04 s⁻¹
- Km ([7]; read-out: Km): 0.02 µM
- kcat [8]: 0.15 s⁻¹
- Km ([8]; read-out: Km): 0.15 µM
- kcat ([9]; Serratia marcescens): 0.8 s⁻¹
- Km ([9]; Serratia marcescens, read-out: Km): 0.6 µM
- kcat ([10]; Pseudomonas aeruginosa): 0.05 s⁻¹
- Km ([10]; Pseudomonas aeruginosa, read-out: Km): 0.02 µM

Molecule: O=C(Cc1cccs1)N[C@@H]1C(=O)N2C(C(=O)O)=C(/C=C/c3ccc([N+](=O)[O-])cc3[N+](=O)[O-])CS[C@H]12 [Nitrocefin]
- kcat [5]: 780 s⁻¹
- Km [5]: 25 µM
- Km [6]: 23 µM
- kcat [6]: 780 s⁻¹
- kcat [7]: 330 s⁻¹
- kcat [8]: 490 s⁻¹
- kcat ([9]; Serratia marcescens): 1240 s⁻¹
- Km [9]: 40 µM
- kcat ([10]; Pseudomonas aeruginosa): 742 s⁻¹
- Km [10]: 27 µM

Molecule: ampicillin-fluorescein [Ampi-flu]
- v0 (standard curve) (P99 beta-lactamase; 0.1 mg/L): 0.2638 ΔAbs482/min
- v0/v0max (standard curve) (P99 beta-lactamase; 0.1 mg/L): 98%
- v0 (standard curve) (P99 beta-lactamase; 0.5 mg/L): 0.2336 ΔAbs482/min
- v0/v0max (standard curve) (P99 beta-lactamase; 0.5 mg/L): 87%
- v0 (standard curve) (P99 beta-lactamase; 1.5 mg/L): 0.169 ΔAbs482/min
- v0/v0max (standard curve) (P99 beta-lactamase; 1.5 mg/L): 63%
- v0 (standard curve) (P99 beta-lactamase; 3 mg/L): 0.1064 ΔAbs482/min
- v0/v0max (standard curve) (P99 beta-lactamase; 3 mg/L): 39%
- v0 (standard curve) (P99 beta-lactamase; 5 mg/L): 0.063 ΔAbs482/min
- v0/v0max (standard curve) (P99 beta-lactamase; 5 mg/L): 23%
- v0 (standard curve) (P99 beta-lactamase; 7.5 mg/L): 0.0389 ΔAbs482/min
- v0/v0max (standard curve) (P99 beta-lactamase; 7.5 mg/L): 14%
- v0 (standard curve) (P99 beta-lactamase; 10 mg/L): 0.025 ΔAbs482/min
- v0/v0max (standard curve) (P99 beta-lactamase; 10 mg/L): 9%
- v0/v0max due to ampi-flu (P99 beta-lactamase; sample 3, calculated from equation 3): 59%
